The values below come from patent US20210015883A1, “A NOVEL SYNERGIC HERBAL FORMULATION FOR THE PREVENTION AND TREATMENT OF PRE-DIABETES, DIABETES AND OTHER INSULIN RESISTANCE CASES” (priority 2018, published 2021).

The subject of assay [1] is high fat diet and Streptozotocin (stz) induced insulin resistance in rats. Nature of the assay: Matsuda index from OGTT in high fat diet + STZ rats. Type of assay: in vivo, Albino Wistar rats. The settings on record: Metformin 120 mg/kg p.o., HFD+STZ rats, value less than 4.3 indicates insulin resistance. The method, then: (§1) After 2 weeks of dietary manipulation, the group of rats fed with HFD were injected a single low dose of STZ (40 mg/kg, i.p), while the Normal control rats were given the vehicle citrate buffer (pH 4.4) in a dose volume of 1 mL/kg, i.p. The fasting blood glucose (FBG) were measured 3 days after the STZ injection. […] The rats were allowed to continue to feed on their respective diets until the end of the study. All FBG and insulin levels were determined on different days viz. 18th day (3rd day after STZ injection), 25th, 32nd, 39th and 45th days (24 h after the previous dose) by collecting blood from the tail vein/retro orbital plexus. On the 44th day Oral Glucose Tolerance Test (OGTT) was performed wherein animals of all groups received glucose solution (1.5 g/kg) 30 minutes after the above treatments. Blood glucose and insulin levels were determined at 0, 30, 60, 90, 120 min after glucose administration. Blood glucose levels were measured using a digital glucometer. Insulin was assayed by using a RIA kit.

For assay [2] the test system is unchanged. Nature of the assay: Oral glucose tolerance test (OGTT) on day 44 in high fat diet + STZ rats. Type of assay: in vivo, Albino Wistar rats. As to conditions: Metformin 120 mg/kg p.o., HFD+STZ rats. The method, then:
(§2) Evaluation of antidiabetic effect of herbal formulation against high fat diet and Streptozotocin (stz) induced insulin resistance in rats.
(§3) Group III Herbal formulation I as per Example 4 (500 mg): Received HFD throughout the experiment (45 days), STZ (40 mg/kg, i.p) on the 15th day of start of experiment and the Herbal formulation (500 mg/kg, p.o) from the 18th day for the next 28 days.
(§4) Group IV Herbal formulation II as per Example 4 (1000 mg): Received HFD throughout the experiment (45 days), STZ (40 mg/kg, i.p) on the 15th day of start of experiment and the Herbal formulation (1000 mg/kg, p.o) from the 18th day for the next 28 days.
(§5) Group V Reference standard: Receive HFD throughout the experiment (45 days), STZ (40 mg/kg, i.p) on the 15th day of start of experiment and Metformin, (120 mg/kg) from the 18th day for the next 28 days.
(§6) The rats were allocated into dietary regimens by feeding HFD (58% fat, 25% protein and 17% carbohydrate, as a percentage of total kcal) and drinking water ad libitum, respectively, for the initial period of 2 weeks. After 2 weeks of dietary manipulation, the group of rats fed with HFD were injected a single low dose of STZ (40 mg/kg, i.p), while the Normal control rats were given the vehicle citrate buffer (pH 4.4) in a dose volume of 1 mL/kg, i.p. The fasting blood glucose (FBG) were measured 3 days after the STZ injection. The rats with FBG of more than 250 mg/dL were considered diabetic and selected for further pharmacological studies and their dosing with the Herbal formulations commenced and continued for the next 28 days. The rats were allowed to continue to feed on their respective diets until the end of the study. All FBG and insulin levels were determined on different days viz. 18th day (3rd day after STZ injection), 25th, 32nd, 39th and 45th days (24 h after the previous dose) by collecting blood from the tail vein/retro orbital plexus. On the 44th day Oral Glucose Tolerance Test (OGTT) was performed wherein animals of all groups received glucose solution (1.5 g/kg) 30 minutes after the above treatments. Blood glucose and insulin levels were determined at 0, 30, 60, 90, 120 min after glucose administration. Blood glucose levels were measured using a digital glucometer. Insulin was assayed by using a RIA kit.
(§7) √—Correction of the nonlinear values distribution. • A. Animals used: 40 • B. Species/Common name: Albino Wistar rats • C. Age/weight/size: Ten weeks, 150-180 g • D. Gender: Male • E. Number to be used (Year-wise breakups and total figures needed to be given): 40 • F. Number of days each animal will be housed: 3 months • G. Details of injections schedule: • H. Details of withdrawal: • Volumes: 2 mL per animal by retro-orbital plexus for insulin assay and 0.1 mL by tail vein for blood glucose. • I. Sites: Retro-orbital plexus, tail vein

The test system is the same in assay [3]. Nature of the assay: HOMA-IR insulin resistance index in high fat diet + STZ rats. Format: in vivo, Albino Wistar rats. The settings on record: HFD+STZ rats. The method, then: as §1
Insulin resistance is calculated using the following methods: […]
HOMA is a model of the relationship of glucose and insulin dynamics that predicts fasting steady-state glucose and insulin concentrations for a wide range of possible combinations of insulin resistance and β-cell function. Insulin levels depend on the pancreatic β-cell response to glucose concentrations while, glucose concentrations are regulated by insulin-mediated glucose production via the liver. Thus, deficient β-cell function will echo a diminished response of β-cell to glucose-stimulated insulin secretion. Similarly, insulin resistance is reflected by the diminished suppressive effect of insulin on hepatic glucose production. […] HOMA describes this glucose-insulin homeostasis by means of a set of simple, mathematically-derived nonlinear equations. The approximating equation for insulin resistance has been simplified; it uses a fasting blood sample. It is derived from the use of the insulin-glucose product, divided by a constant.
The product of FPG×FPI is an index of hepatic insulin resistance.
I0—Fasting plasma insulin concentration (mIU/L), G0—Fasting plasma glucose concentration (mg/dL),

For assay [4] the test system is unchanged. Kind of assay: QUICKI insulin sensitivity index in high fat diet + STZ rats. Type of assay: in vivo, Albino Wistar rats. As to conditions: HFD+STZ rats. The method, then: as §6
Quantitative insulin sensitivity check index (QUICKI) is an empirically-derived mathematical transformation of fasting blood glucose and plasma insulin concentrations that provide a consistent and precise ISI with a better positive predictive power. It is simply a variation of HOMA equations, as it transforms the data by taking both the logarithm and the reciprocal of the glucose-insulin product, thus slightly skewing the distribution of fasting insulin values. […] It employs the use of fasting values of insulin and glucose as in HOMA calculations. QUICKI is virtually identical to the simple equation form of the HOMA model in all aspects, except that a log transform of the insulin glucose product is employed to calculate QUICKI. The QUICKI can be determined from fasting plasma glucose (mg/dl) and insulin (μIU/ml) concentrations.
QUICKI values range between 0.45 in healthy individuals (noted as unusually healthy in the original study) and 0.30 in diabetics. Lower values reflect greater resistance with values below 0.339 indicating insulin resistance.

The test system is the same in assay [5]. Kind of assay: Insulin levels in high fat diet + STZ rats (RIA). Type of assay: in vivo, Albino Wistar rats. The settings on record: HFD+STZ rats. The method, then: as §2
(§8) Rats were divided 5 into groups of 8 rats each and treated in the following way:
as §3, §4, §5, §6, §7

Assay [6] has the same test system. Nature of the assay: Fasting blood glucose levels in high fat diet + STZ rats. Type of assay: in vivo, Albino Wistar rats. As to the method:
as §2, §8
Group I Normal control group—Received normal chow diet and drinking water daily for 45 days and citrate buffer (1 mL/kg, i.p) on the 15th day of start of experiment.
Group II Toxicant Control: Received HFD throughout the experiment (45 days) and STZ (40 mg/kg, i.p) on the 15th day of start of experiment.
as §3, §4, §5, §6, §7

Assay [7] relates to PPAR gamma. Nature of the assay: PPAR gamma gene expression by Real Time PCR in differentiated 3T3L1 adipocytes. Format: cell-based. The settings on record: SC = Pioglitazone 6 μg/ml, 12th day, control = 1. A general note: Quantitative PCR measures a nucleic acid by following its amplification.
Description: Samples of Herbal formulation were evaluated over a concentration range from 0.5 to 10 μg/ml. Pioglitazone, a known anti-diabetic agent was used as the standard control at a dose of 6 μg/ml; a dose extrapolated from the median therapeutic human dose. The Herbal formulation was dissolved in NAOH (0.1N).
Viability studies were carried out to eliminate cytotoxic concentrations of the samples using MTT assay. Based on the results of the MTT assay, the following concentrations were used for the PPAR Expression studies. Concentration selected was as follows 2.5, 5, 10 μg/ml.
3T3L1 Fibroblasts were grown in DMEM medium, supplemented with 10% FBS, in a humidified atmosphere of 5% CO2 at 370 C. […]
On the 12th day after differentiation, total RNA was extracted with TRIzol reagent according to the manufacturer's instructions from the differentiated adipocytes. The concentration and purity of RNA were determined by measuring the absorbance at 260 nm (A260) and the ratio of the absorbance at 260 nm to the absorbance at 280 nm (A260/A280), respectively. […] SYBR Green chemistry was used to perform the quantitative determination of the relative expression of PPAR gene. The PPAR gene was analyzed using the Rotogene Q; Qiagen real-time polymerase chain reaction machine. […]
Setting [8] is: Metformin 120 mg/kg p.o. group, Day 18 (start of treatment).
Setting [9] is: Metformin 120 mg/kg p.o., Day 25.
Where [10] appears, read: Metformin 120 mg/kg p.o., Day 32.
The mark [11] stands for this setting: Metformin 120 mg/kg p.o., Day 39.
Where [12] appears, read: Metformin 120 mg/kg p.o., Day 45.

Take `CN(C)C(=N)N=C(N)N` [Metformin]: in assay [1], the “Matsuda Index” value came to 12.56. Further, the “OGTT Glucose” value in assay [2] (0 Min after glucose 1.5 g/kg) is given as 129.5 ± 1.17 mg/dL; in assay [2] (30 Min after glucose 1.5 g/kg), 249.50 ± 0.56 mg/dL; in assay [2] (90 Min after glucose 1.5 g/kg), 185.167 ± 2.08 mg/dL; in assay [2] (120 Min after glucose 1.5 g/kg) it was 149.83 ± 2.81 mg/dL. For the same compound, the “OGTT Insulin” value is 13.12 ± 0.97 mIU/L in assay [2] (0 Min after glucose 1.5 g/kg), 27.308 ± 1.4 mIU/L in assay [2] (30 Min after glucose 1.5 g/kg), 22.72 ± 1.49 mIU/L in assay [2] (90 Min after glucose 1.5 g/kg) and 14.95 ± 1.035 mIU/L in assay [2] (120 Min after glucose 1.5 g/kg). Moreover, the HOMA-IR in assay [3] (setting [8]) is 31.7 ± 4.75; in assay [3] (setting [9]), 9.91 ± 0.69; in assay [3] (setting [10]), 15.8 ± 2.76; in assay [3] (setting [11]), 10.56 ± 1.7; in assay [3] (setting [12]), 5.81 ± 0.39. Also, the QUICKI in assay [4] (setting [8]) stood at 0.24 ± 0.0057; in assay [4] (setting [9]), 0.276 ± 0.0021; in assay [4] (setting [10]), 0.26 ± 0.0042; in assay [4] (setting [11]), 0.27 ± 0.0055; in assay [4] (setting [12]) it was 0.29 ± 0.0030. Further, the Insulin level came to 31.56 ± 1.95 mIU/L in assay [5] (Metformin 120 mg/kg p.o. group, date printed as "—" (first reading)); 22.56 ± 2.24 mIU/L in assay [5] (setting [9]); 27.84 ± 5.014 mIU/L in assay [5] (setting [10]); 23.40 ± 3.47 mIU/L in assay [5] (setting [11]); 15.36 ± 0.58 mIU/L in assay [5] (setting [12]). In addition, in assay [6] (HFD+STZ rats), the “course of BGL over 4 weeks of treatment (in words)” value is given as “gradual decrease in BGL”. The Blood glucose level in assay [6] (Metformin 120 mg/kg p.o. group, HFD+STZ rats, Day 1 (before treatment, dosing from day 18)) was 126.87 ± 2.41 mg/dL; in assay [6] (Metformin 120 mg/kg p.o. group, HFD+STZ rats, Day 7 (before treatment)), 138.63 ± 1.54 mg/dL; in assay [6] (Metformin 120 mg/kg p.o. group, HFD+STZ rats, Day 15 (before treatment)) it was 156.37 ± 3.17 mg/dL; in assay [6] (Metformin 120 mg/kg p.o. group, HFD+STZ rats, Day 18 (3rd day after STZ, start of treatment)), 396.67 ± 43.72 mg/dL; in assay [6] (Metformin 120 mg/kg p.o., HFD+STZ rats, Day 25) it was 183.167 ± 13.58 mg/dL; in assay [6] (Metformin 120 mg/kg p.o., HFD+STZ rats, Day 32), 245.167 ± 28.86 mg/dL. The Blood glucose level in assay [6] (Metformin 120 mg/kg p.o., HFD+STZ rats, Day 39) is reported as 191.83 ± 25.08 mg/dL; in assay [6] (Metformin 120 mg/kg p.o., HFD+STZ rats, Day 45) it was 152.83 ± 8.40 mg/dL. Also, the “BGL at the end of the study compared with the HFD+STZ group (in words)” value in assay [6] (treatment groups) is recorded as “significantly lower”.

As to `CCc1ccc(CCOc2ccc(CC3SC(=O)NC3=O)cc2)nc1` (centres unmarked) [Pioglitazone], the “2^-DDCT (relative PPAR gamma mRNA expression)” value in assay [7] is 2.292.
